Laboratory results as given in US20100152434A1, “Protein Kinase-binding Nucleosides and Associated Methods” (priority 2007, published 2010).

Legend:
[1] = molecular target: EGFR (Homo sapiens, UniProt P00533); assay: Ambit kinase phage display ATP-binding-site ligand binding assay; details: read-out: % Inhibition of binding to ATP-binding-site ligand
Text: (§1) This assay is based on ligand-affinity/protein kinase phage display and was employed essentially as described by Fabian et. al [Nature Biotech. […] In this assay, protein kinases are cloned into T7 bacteriophage which express the kinase fusion proteins on the phage capsid. T7 kinase-tagged phage are then screened for binding to ATP-binding-site ligands that have been immobilized on a solid support. Phage are screened for binding to the anchored ligands both in the presence of test compound and in its absence (control). Elution of the bound phage by free ligand (ATP-binding site ligand that is not immobilized on a solid support) followed by determination of the phage titre provides a reliable measure of the ability of test compounds to block binding of target kinases to resin-bound ATP-binding-site ligands.
(§2) T7 kinase-tagged phage strains were grown in parallel in microtiter plates in a proprietary bacterial host derived from E. Coli strain BL21. E. Coli were grown to a log phase, infected with T7 kinase-tagged phage, and incubated while shaking at 32° C. until bacterial lysis (approx. 90 min). Lysates were centrifuged (6,000 g) and filtered (0.2 μm). […] The phage titre of the eluates was measured by quantitative PCR or by plaque assays. […]

[2] = molecular target: TYK2 (Homo sapiens, UniProt P29597); assay: as above; details: read-out: % Inhibition of binding to ATP-binding-site ligand
Text: as §1, §2

[3] = molecular target: PAK3 (Homo sapiens, UniProt O75914); assay: as above; details: read-out: % Inhibition of binding to ATP-binding-site ligand
Text: as §1, §2

[4] = molecular target: BTK (Homo sapiens, UniProt Q06187); assay: as above; details: read-out: % Inhibition of binding to ATP-binding-site ligand
Text: (§3) In this assay, protein kinases are cloned into T7 bacteriophage which express the kinase fusion proteins on the phage capsid. T7 kinase-tagged phage are then screened for binding to ATP-binding-site ligands that have been immobilized on a solid support. Phage are screened for binding to the anchored ligands both in the presence of test compound and in its absence (control). Elution of the bound phage by free ligand (ATP-binding site ligand that is not immobilized on a solid support) followed by determination of the phage titre provides a reliable measure of the ability of test compounds to block binding of target kinases to resin-bound ATP-binding-site ligands.
(§4) T7 kinase-tagged phage strains were grown in parallel in microtiter plates in a proprietary bacterial host derived from E. Coli strain BL21. E. Coli were grown to a log phase, infected with T7 kinase-tagged phage, and incubated while shaking at 32° C. until bacterial lysis (approx. 90 min). Lysates were centrifuged (6,000 g) and filtered (0.2 μm). Small molecule ATP-binding-site-specific ligands were anchored to solid supports via a two step process beginning with biotin conjugation followed by treatment of the biotin/small molecule conjugate with streptavidin-coated magnetic beads. […] The phage titre of the eluates was measured by quantitative PCR or by plaque assays. […]

[5] = molecular target: IKK-α (Homo sapiens, UniProt O15111); assay: as above; details: read-out: % Inhibition of binding to ATP-binding-site ligand
Text: as §3, §4

[6] = molecular target: CSNK1G2 (Homo sapiens, UniProt P78368); assay: as above; details: read-out: % Inhibition of binding to ATP-binding-site ligand
Text: as §3, §4

[7] = molecular target: RPSGKA1 (Homo sapiens, UniProt Q15418); assay: as above; details: read-out: % Inhibition of binding to ATP-binding-site ligand
Text: as §3, §4

[8] = molecular target: ALK6 (Homo sapiens, UniProt O00238); assay: as above; details: read-out: % Inhibition of binding to ATP-binding-site ligand
Text: as §1, §2

[9] = molecular target: TXK (Homo sapiens, UniProt P42681); assay: as above; details: read-out: percent inhibition of binding
Text: as §1, §2

[10] = molecular target: RPS6KA2 (Homo sapiens, UniProt Q15349); assay: as above; details: read-out: percent inhibition of binding
Text: as §1, §2

[11] = molecular target: MEK6 (Homo sapiens, UniProt P52564); assay: as above; details: read-out: percent inhibition of binding
Text: as §1, §2

[12] = molecular target: EPHA5 (Homo sapiens, UniProt P54756); assay: as above; details: read-out: percent inhibition of binding
Text: as §3, §4

[13] = molecular target: CLK4 (Homo sapiens, UniProt Q9HAZ1); assay: as above; details: read-out: percent inhibition of binding
Text: as §3, §4

[14] = molecular target: CD2 L2 (Homo sapiens, UniProt Q9UQ88); assay: as above; details: read-out: percent inhibition of binding
Text: as §3, §4

[15] = molecular target: ERK2 (Homo sapiens, UniProt P28482); assay: as above; details: read-out: percent inhibition of binding
Text: as §3, §4

[16] = molecular target: MST1 (Homo sapiens, UniProt Q13043); assay: as above; details: read-out: percent inhibition of binding
Text: as §3, §4

[17] = molecular target: MINK (Homo sapiens, UniProt Q8N4C8); assay: as above; details: read-out: percent inhibition of binding
Text: as §1, §2

[18] = molecular target: EGFR(L747-T751del,Sins) (Homo sapiens, UniProt P00533, DEL747-750/T751S); assay: as above; details: read-out: percent inhibition of binding
Text: as §1, §2

[19] = molecular target: CSF1R (Homo sapiens, UniProt P07333); assay: as above; details: read-out: percent inhibition of binding
Text: as §1, §2

[20] = molecular target: CDK3 (Homo sapiens, UniProt Q00526); assay: as above; details: read-out: percent inhibition of binding
Text: as §1, §2

[21] = molecular target: MET (Homo sapiens, UniProt P08581); assay: as above; details: read-out: percent inhibition of binding
Text: as §1, §2

[22] = molecular target: PDGFRB (Homo sapiens, UniProt P09619); assay: as above; details: read-out: percent inhibition of binding
Text: as §3, §4

[23] = molecular target: TYK2(Kin.Dom.1) (Homo sapiens, UniProt P29597); assay: as above; details: read-out: percent inhibition of binding
Text: as §3, §4

[24] = molecular target: p38-beta (Homo sapiens, UniProt Q15759); assay: as above; details: read-out: percent inhibition of binding
Text: as §3, §4

[25] = test system: MDA-MB-468; assay: NCI 60 in vitro screen (SRB), Breast Cancer; format: cell-based, human
Procedure: Mean ODtzero=The average of optical density measurements SRB-derived color just before exposure of cells to the test compound. Mean ODtest=The average of optical density measurement of SRB-derived color after 48 hours exposure of cells to the test compound. Mean ODctrl=The average of optical density measurements of SRB-derived color after 48 hours with no exposure of cells to the test compound.

MEK6, sequence (P52564 whole entry): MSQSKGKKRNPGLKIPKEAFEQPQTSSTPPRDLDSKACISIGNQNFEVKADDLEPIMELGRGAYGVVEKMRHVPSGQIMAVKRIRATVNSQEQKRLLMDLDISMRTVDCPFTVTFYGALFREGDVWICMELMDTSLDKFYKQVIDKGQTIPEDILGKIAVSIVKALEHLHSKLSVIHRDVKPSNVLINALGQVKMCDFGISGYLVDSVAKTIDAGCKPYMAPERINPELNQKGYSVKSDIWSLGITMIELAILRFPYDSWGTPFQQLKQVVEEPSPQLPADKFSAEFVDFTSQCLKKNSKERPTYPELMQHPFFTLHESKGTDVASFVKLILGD
EGFR(L747-T751del,Sins), sequence (P00533 with tags, fused parts or gaps DEL747-750/T751S limits assumed): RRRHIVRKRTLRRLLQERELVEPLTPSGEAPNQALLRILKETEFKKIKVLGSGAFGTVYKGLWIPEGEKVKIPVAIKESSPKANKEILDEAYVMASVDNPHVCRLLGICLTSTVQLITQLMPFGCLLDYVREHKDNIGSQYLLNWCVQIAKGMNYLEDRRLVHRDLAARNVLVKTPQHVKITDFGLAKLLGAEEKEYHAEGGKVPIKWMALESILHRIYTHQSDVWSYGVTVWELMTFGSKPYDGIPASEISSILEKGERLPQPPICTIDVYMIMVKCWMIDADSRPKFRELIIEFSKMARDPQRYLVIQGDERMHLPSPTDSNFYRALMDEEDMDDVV
CSNK1G2, sequence (P78368 whole entry): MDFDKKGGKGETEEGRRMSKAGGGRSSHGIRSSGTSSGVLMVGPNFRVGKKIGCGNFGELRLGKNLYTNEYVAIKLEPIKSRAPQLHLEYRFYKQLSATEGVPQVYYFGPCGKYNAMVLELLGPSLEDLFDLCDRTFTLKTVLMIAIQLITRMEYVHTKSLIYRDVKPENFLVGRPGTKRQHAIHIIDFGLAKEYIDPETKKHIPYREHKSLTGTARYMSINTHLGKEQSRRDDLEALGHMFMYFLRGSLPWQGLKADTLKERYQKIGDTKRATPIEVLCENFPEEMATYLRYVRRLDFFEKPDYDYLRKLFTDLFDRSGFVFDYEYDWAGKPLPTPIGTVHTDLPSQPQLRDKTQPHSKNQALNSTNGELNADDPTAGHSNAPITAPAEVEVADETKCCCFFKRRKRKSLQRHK
BTK, sequence (Q06187 whole entry, species assumed): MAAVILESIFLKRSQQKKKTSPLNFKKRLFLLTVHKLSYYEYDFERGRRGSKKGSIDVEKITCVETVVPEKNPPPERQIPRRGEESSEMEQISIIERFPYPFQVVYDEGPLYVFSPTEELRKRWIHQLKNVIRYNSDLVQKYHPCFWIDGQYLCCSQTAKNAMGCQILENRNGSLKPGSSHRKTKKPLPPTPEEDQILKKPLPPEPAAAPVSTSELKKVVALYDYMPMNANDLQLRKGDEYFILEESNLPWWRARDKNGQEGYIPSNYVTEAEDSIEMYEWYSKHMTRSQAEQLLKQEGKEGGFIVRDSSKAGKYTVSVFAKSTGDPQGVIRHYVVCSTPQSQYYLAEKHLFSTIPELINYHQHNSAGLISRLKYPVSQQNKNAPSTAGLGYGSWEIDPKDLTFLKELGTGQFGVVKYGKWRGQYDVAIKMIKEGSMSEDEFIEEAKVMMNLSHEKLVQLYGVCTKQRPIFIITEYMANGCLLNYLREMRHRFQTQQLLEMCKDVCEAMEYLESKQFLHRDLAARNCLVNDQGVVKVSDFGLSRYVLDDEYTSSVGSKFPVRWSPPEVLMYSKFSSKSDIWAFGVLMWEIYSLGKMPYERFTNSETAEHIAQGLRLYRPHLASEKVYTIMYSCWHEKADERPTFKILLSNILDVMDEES
RPS6KA2, sequence (Q15349 whole entry): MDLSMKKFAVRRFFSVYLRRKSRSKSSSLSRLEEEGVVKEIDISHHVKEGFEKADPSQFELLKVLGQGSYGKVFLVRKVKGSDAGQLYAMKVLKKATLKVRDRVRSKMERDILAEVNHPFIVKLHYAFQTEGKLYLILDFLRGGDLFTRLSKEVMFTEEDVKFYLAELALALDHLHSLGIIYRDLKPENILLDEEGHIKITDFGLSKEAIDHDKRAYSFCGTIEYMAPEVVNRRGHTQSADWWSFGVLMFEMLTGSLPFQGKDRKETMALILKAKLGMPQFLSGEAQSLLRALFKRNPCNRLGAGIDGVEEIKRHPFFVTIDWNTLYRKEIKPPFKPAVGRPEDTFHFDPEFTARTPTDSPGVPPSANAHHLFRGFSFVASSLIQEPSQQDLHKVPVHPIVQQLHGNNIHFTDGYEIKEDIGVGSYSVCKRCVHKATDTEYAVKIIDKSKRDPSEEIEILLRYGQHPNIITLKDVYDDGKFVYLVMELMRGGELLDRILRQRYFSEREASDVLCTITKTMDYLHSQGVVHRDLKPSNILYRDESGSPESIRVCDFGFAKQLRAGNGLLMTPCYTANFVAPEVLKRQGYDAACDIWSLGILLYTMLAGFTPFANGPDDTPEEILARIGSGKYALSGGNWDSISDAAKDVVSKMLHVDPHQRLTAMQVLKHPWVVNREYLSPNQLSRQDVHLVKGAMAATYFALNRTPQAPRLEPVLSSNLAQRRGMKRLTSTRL
PDGFRB, sequence (P09619 33-1106): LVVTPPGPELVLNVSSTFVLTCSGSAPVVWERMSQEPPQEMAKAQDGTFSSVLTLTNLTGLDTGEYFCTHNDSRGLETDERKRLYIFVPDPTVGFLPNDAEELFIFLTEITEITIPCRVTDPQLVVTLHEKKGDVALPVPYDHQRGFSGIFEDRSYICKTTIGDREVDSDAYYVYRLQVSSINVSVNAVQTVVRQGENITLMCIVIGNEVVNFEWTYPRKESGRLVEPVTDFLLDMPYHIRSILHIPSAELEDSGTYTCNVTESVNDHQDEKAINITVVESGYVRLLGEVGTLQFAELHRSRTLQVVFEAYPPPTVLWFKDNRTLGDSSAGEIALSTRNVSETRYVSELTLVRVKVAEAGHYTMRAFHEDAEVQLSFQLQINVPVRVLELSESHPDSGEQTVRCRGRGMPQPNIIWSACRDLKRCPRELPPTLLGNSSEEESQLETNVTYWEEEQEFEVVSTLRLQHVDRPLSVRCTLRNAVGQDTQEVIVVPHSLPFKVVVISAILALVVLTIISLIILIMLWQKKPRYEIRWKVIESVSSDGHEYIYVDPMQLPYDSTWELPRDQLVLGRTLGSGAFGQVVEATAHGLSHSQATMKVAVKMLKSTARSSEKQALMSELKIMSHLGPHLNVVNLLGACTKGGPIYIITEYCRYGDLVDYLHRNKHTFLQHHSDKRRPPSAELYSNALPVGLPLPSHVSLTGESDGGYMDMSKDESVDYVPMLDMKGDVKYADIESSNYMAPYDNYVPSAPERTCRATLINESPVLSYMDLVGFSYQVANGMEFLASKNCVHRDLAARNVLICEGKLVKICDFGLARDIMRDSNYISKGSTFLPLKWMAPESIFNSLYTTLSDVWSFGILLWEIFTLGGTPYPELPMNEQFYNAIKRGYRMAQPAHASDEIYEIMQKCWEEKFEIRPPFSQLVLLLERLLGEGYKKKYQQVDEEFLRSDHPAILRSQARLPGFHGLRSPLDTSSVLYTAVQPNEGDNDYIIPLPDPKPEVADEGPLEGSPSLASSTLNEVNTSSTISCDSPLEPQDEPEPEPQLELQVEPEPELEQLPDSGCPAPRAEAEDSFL
EGFR, sequence (P00533 25-1210): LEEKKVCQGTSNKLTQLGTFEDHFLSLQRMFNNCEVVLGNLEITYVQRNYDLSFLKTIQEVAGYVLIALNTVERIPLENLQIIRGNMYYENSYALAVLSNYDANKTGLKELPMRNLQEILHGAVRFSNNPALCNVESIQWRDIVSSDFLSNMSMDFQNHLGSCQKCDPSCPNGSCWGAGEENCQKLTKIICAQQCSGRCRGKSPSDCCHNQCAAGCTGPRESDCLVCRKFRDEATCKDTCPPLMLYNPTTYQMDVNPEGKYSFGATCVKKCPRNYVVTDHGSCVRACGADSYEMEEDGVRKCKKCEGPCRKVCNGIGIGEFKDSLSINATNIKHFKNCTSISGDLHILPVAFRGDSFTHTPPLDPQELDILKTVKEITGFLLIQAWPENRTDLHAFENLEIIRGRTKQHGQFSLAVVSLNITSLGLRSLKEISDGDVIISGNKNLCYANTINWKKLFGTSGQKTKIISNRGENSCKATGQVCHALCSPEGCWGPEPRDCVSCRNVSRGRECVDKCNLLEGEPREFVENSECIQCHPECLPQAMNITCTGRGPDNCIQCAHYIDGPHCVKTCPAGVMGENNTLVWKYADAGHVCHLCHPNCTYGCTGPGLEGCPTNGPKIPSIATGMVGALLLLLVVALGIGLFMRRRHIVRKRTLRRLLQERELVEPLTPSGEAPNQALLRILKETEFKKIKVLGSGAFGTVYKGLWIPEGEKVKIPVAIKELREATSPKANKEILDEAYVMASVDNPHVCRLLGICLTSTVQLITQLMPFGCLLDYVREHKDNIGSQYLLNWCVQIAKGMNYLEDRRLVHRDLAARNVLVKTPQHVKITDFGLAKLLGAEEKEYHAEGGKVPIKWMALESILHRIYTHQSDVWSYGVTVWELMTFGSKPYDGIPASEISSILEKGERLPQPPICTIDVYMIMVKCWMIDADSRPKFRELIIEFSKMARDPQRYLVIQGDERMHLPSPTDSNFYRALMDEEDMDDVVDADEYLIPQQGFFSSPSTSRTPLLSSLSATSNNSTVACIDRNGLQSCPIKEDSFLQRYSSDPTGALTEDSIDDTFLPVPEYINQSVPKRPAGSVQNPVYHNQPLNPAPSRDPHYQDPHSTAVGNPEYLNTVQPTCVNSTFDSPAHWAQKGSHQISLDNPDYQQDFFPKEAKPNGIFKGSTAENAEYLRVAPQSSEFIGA
TYK2(Kin.Dom.1), sequence (P29597 589-875 limits assumed): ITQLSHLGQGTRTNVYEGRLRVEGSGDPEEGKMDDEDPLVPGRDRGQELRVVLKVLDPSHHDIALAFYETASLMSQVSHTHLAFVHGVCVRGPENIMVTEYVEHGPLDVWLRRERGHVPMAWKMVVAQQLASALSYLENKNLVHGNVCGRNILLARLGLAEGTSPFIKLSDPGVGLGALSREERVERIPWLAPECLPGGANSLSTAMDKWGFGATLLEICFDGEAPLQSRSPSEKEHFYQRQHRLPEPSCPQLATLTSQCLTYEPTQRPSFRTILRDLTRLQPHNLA

Structure (SMILES): CCOC(=O)C[C@@H]1C(O[Si](C)(C)C(C)(C)C)[C@H](n2cnc3c(NC(=O)Nc4ccccc4)ncnc32)O[C@@H]1CNC(=O)NC (some centres unmarked) [Compound 10]
- inhibition at 10 µM [1]: 30%
- inhibition at 10 µM [2]: 31%
- inhibition at 10 µM [3]: 33%
- inhibition at 10 µM [4]: 35%
- inhibition at 10 µM [5]: 37%
- inhibition at 10 µM [6]: 38%
- inhibition at 10 µM [7]: 40%
- inhibition at 10 µM [8]: 47%
- inhibition at 10 µM [9]: 20 to 29%
- inhibition at 10 µM [10]: 20 to 29%
- inhibition at 10 µM [11]: 20 to 29%
- inhibition at 10 µM [12]: 20 to 29%
- inhibition at 10 µM [13]: 20 to 29%
- inhibition at 10 µM [14]: 20 to 29%
- inhibition at 10 µM [15]: 20 to 29%
- inhibition at 10 µM [16]: 20 to 29%
- inhibition at 10 µM [17]: 20 to 29%
- inhibition at 10 µM [18]: 20 to 29%
- inhibition at 10 µM [19]: 20 to 29%
- inhibition at 10 µM [20]: 20 to 29%
- inhibition at 10 µM [21]: 20 to 29%
- inhibition at 10 µM [22]: 20 to 29%
- inhibition at 10 µM [23]: 20 to 29%
- inhibition at 10 µM [24]: 20 to 29%

Structure (SMILES): CNC(=O)NC[C@H]1O[C@@H](n2cnc3c(NC(=O)Nc4ccccc4)ncnc32)C(O[Si](C)(C)C(C)(C)C)[C@H]1O[Si](C)(C)C(C)(C)C (some centres unmarked) [Compound 25, 2′,3′-Bis-O-(tert-butyldimethylsilyl)-5-deoxy-5′-[(N-methylcarbamoyl)amino]-N^6-(N-phenylcarbamoyl)adenosine]
- TGI [25]: 1.39E−5 Molar
- GI50 ([25]; Homo sapiens): 3.35 µM
- IC50 ([25]; Homo sapiens): > 100 µM
- Percent Growth ([25]; Log10 Concentration −4.0 Molar): −35%
- Percent Growth ([25]; Log10 Concentration −5.0 Molar): 5%
- Percent Growth ([25]; Log10 Concentration −6.0 Molar): 99%
- Percent Growth ([25]; Log10 Concentration −7.0 Molar): 104%
- Percent Growth ([25]; Log10 Concentration −8.0 Molar): 101%
